Assay results published in patent US6518260B1, “(α-aminophosphino) peptide derivatives, method for making same and therapeutic applications thereof” (Institut National de la Sante et de la Recherche Medicale …, priority 1996, dated 2003).

melting point | Compound
240 °C | Br.NC(Cc1ccccc1)P(=O)(O)CC(Cc1ccccc1)C(=O)N[C@H](CC(=O)O)Cc1ccccc1 (stereo partly shown)
210 °C | NC(Cc1ccccc1)P(=O)(O)CC(Cc1ccccc1)C(=O)N[C@@H](Cc1ccccc1)C(=O)OCc1ccccc1.O=C(O)C(F)(F)F (stereo partly shown)
205 °C | CC(N)P(=O)(O)CC(Cc1ccc(-c2ccccc2)cc1)C(=O)N[C@@H](C)C(=O)OCc1ccccc1.O=C(O)C(F)(F)F (stereo partly shown)
192 °C | NC(Cc1ccccc1)P(=O)(CC(Cc1ccccc1)C(=O)N[C@@H](Cc1ccccc1)C(=O)OCc1ccccc1)OCc1ccccc1.O=CO (stereo partly shown)
